Literature values in article PMC8042970, “A phase 1 study of dalpiciclib, a cyclin-dependent kinase 4/6 inhibitor in Chinese patients with advanced breast cancer” (Biomarker Research, 2021).
Where two headings read alike, the source gives them in different places.

Key:
[1] = parameters: method as in product label or FDA review; conditions: ref product label or FDA review
[2] = system: HR-positive and HER2-negative metastatic breast cancer
[3] = parameters: method as in product label or FDA review; conditions: ref product label or FDA review; remark: listed apart in the source
CDK6 = conditions: ref product label or FDA review
CDK4 = conditions: ref product label or FDA review
[4] = parameters: method as in product label or FDA review; conditions: ref product label or FDA review; remark: listed apart in the source
[5] = single agent abemaciclib, heavily pretreated population
[6] = phase 1 dose-escalation study of palbociclib
[7] = single agent palbociclib, moderately pretreated population

For `CCN1CCN(Cc2ccc(Nc3ncc(F)c(-c4cc(F)c5nc(C)n(C(C)C)c5c4)n3)nc2)CC1` [abemaciclib], the “Excretion, Feces” value [1] is listed as 81%, the “Excretion, Urine” value [1] is listed as 3% and the DCR [2, 5] is listed as 66.7%. The “Median PFS” value [2, 5] was 5.9 months, the Metabolism [3] was “Liver (CYP3A4)” and the IC50 (CDK6) was 9.9 nM. The IC50 (CDK4) was […].

In the case of `CC(=O)c1c(C)c2cnc(Nc3ccc(N4CCNCC4)cn3)nc2n(C2CCCC2)c1=O` [palbociclib], the “MTD and recommended phase 2 dose” value [6] is given as 125 mg, the “Patients with DLT” value [6] is given as 12% and the “Patients with QTc value of > 500 ms” value (phase 1 trial of palbociclib) is given as “none”. The “Patients with maximum increase from baseline QTc of < 30 ms” value (phase 1 trial of palbociclib) was 26 of 41, the DCR [2, 7] was 63.8% and the “Median PFS” value [2, 7] was 6.5 months. The AUCss ([4]; at recommended dose) was 1633 to 1982 ng·h/mL, the Tmax [4] was 6−12 h and the Volume of distribution [4] was 2583 L. The t1/2 [4] was 29 h, the IC50 (CDK6) was 15 nM and the IC50 (CDK4) was […].

In the case of `CN(C)C(=O)c1cc2cnc(Nc3ccc(N4CCNCC4)cn3)nc2n1C1CCCC1` [ribociclib], the “Excretion, Feces” value [1] is listed as 69%, the “Excretion, Urine” value [1] is listed as 23% and the “DLT: QTcF prolongation” value (phase 1 study of ribociclib) is listed as 1. For the same molecule, the “DLT: increased creatinine” value (phase 1 study of ribociclib) was 1, the “DLT: mucositis” value (phase 1 study of ribociclib) was 1 and the “DLT: neutropenia” value (phase 1 study of ribociclib) was 3 cases. For the same molecule, the “DLT: pulmonary embolism” value (phase 1 study of ribociclib) was 1, the “DLT: thrombocytopenia” value (phase 1 study of ribociclib) was 2 cases and the “Patients with DLTs” value (phase 1 study of ribociclib, first treatment cycle) was 13%. The “Patients with QTcF prolongation” value (ribociclib) was 6–9%, the “Cmin,ss” value ([4]; at recommended dose) was 631 ng/mL and the Mild hepatic/renal impairment [4] was “No effect on exposure”. The Tmax [4] was 1−4 h, the Volume of distribution [4] was 1090 L and the Metabolism [3] was “Liver (CYP3A4)”. For the same molecule, the IC50 (CDK4) was […].
